Source: patent US8435928B2, “Herbicidal composition” (Ishihara Sangyo Kaisha, Ltd., priority 2007, dated 2013)

Tests used:
crabgrass [1] = assay: Test Example 8: foliar application of compound No. 2-6 wettable powder with surfactant, crabgrass; format: in vivo, Digitaria sanguinalis L.; details: 15 g a.i./ha wettable powder, 21st day
Description: (§1) On the 21st day after the application, the state of growth of the plants was visually observed (growth inhibition rate (%)=0 (the same as the untreated plot) to 100 (complete kill)), and the results as shown in Tables b1 and b2 were obtained.
(§2) Upland field soil was put into a 1/1,000,000 ha pot, and seeds of bamyardgrass (Echinochloa crus-galli L) and crabgrass were respectively sown and grown in a greenhouse. When barnyardgrass reached 4.0 to 4.5 leaf stage and crabgrass reached 4.0 to 5.0 leaf stage, a prescribed amount (15 g a.i./ha) of a wettable powder comprising compound No. 2-6 as an active ingredient, prepared in accordance with the above Example 1, was diluted with water corresponding to 300 L/ha (containing 0.05 vol % of a surfactant containing the POA alkyl ether phosphate), followed by foliar application. Further, for comparison, foliar application was carried out in the same manner by using SILWETT L-77 (tradename.) at a concentration of 0.1 vol % instead of the above surfactant.
(§3) On the 21st day after the application, the state of growth of the plants was evaluated in the same manner as in Test Example 1, and the results as shown in Tables b11 and b12 were obtained.

[2] = system: bamyardgrass (Echinochloa crus-galli L); assay: Test Example 8: foliar application of compound No. 2-6 wettable powder with surfactant, barnyardgrass; format: in vivo; details: 15 g a.i./ha wettable powder, 21st day
Description: as §1, §2, §3

[3] = system: bamyardgrass (Echinochloa crus-galli L); assay: Test Example 10: foliar application of compound No. 2-185 wettable powder with surfactant, barnyardgrass; format: in vivo; details: 15 g a.i./ha wettable powder, 21st day
Description: as §1, §2
On the 21st day after the application, the state of growth of the plants was evaluated in the same manner as in Test Example 1, and the results as shown in Tables b11 and b12 were obtained. […]

crabgrass [4] = assay: Test Example 10: foliar application of compound No. 2-185 wettable powder with surfactant, crabgrass; format: in vivo, Digitaria sanguinalis L.; details: 15 g a.i./ha wettable powder, 21st day
Description: as §1, §2, §3
The results as shown in Tables b14 and b15 were obtained in the same manner as in the above Test Example 8 except that a prescribed amount (15 g a.i./ha) of a wettable powder comprising compound No. 2-185 as an active ingredient, prepared in accordance with the above Example 1, was used.

barnyardgrass = assay: Test Example 13: foliar application of compound No. 5-1 wettable powder with surfactant, barnyardgrass; format: in vivo, Echinochloa crus-galli L; details: 31 g a.i./ha wettable powder, 21st day
Description: as §1
as §2, with “bamyardgrass” for “bamyardgrass (Echinochloa crus-galli L) and crabgrass”, “were” for “were respectively”, “leaf” for “leaf stage and crabgrass reached 4.0 to 5.0 leaf”, “(31” for “(15”, “5-1” for “2-6”, “(tradename)” for “(tradename.)”
On the 21st day after the application, the state of growth of the plant was evaluated in the same manner as in Test Example 1, and the results as shown in Table b18 were obtained.

crabgrass [5] = assay: Test Example 5: foliar application of compound No. 3-31 wettable powder with surfactant, crabgrass; format: in vivo, Digitaria sanguinalis L.; details: foliar application at 4.5 to 5.0 leaf stage, visual, 21st day, 0 = same as untreated, 100 = complete kill
Description: as §1
Upland field soil was put into a 1/1,000,000 ha pot, and seeds of crabgrass were sown and grown in a greenhouse. When crabgrass reached 4.5 to 5.0 leaf stage, a prescribed amount (30 g a.i./ha) of a water-based suspension concentrate comprising compound No. 238 as an active ingredient, prepared in accordance with the above Example 6, was diluted with water corresponding to 300 L/ha (containing 0.05 vol % of a surfactant containing the POA alkyl ether phosphate), followed by foliar application. Further, for comparison, foliar application was carried out in the same manner by using CITOWETT (tradename) at a concentration of 0.3 vol %, instead of the above surfactant.
On the 21st day after the application, the state of growth of the plant was evaluated in the same manner as in Test Example 1, and the results as shown in Table b5 were obtained.
The results as shown in Table b8 were obtained in the same manner as in the above Test Example 3 except that a prescribed amount (60 g a.i./ha) of a wettable powder comprising compound No. 3-31 as an active ingredient, prepared in accordance with the above Example 5, was used.

crabgrass [6] = assay: Test Example 12: foliar application of compound No. 4-320 wettable powder with surfactant, crabgrass; format: in vivo, Digitaria sanguinalis L.; details: 15 g a.i./ha wettable powder, 21st day
Description: as §1
as §2, with “of” for “of bamyardgrass (Echinochloa crus-galli L) and”, “were” for “were respectively”, “When” for “When barnyardgrass reached 4.0 to 4.5 leaf stage and”, “4-3” for “2-6”, “(tradename)” for “(tradename.)”
On the 21st day after the application, the state of growth of the plant was evaluated in the same manner as in Test Example 1, and the results as shown in Table b16 were obtained.
The results as shown in Tables b17 were obtained in the same manner as in the above Test Example 11 except that a prescribed amount (15 g a.i./ha) of a wettable powder comprising compound No. 4-320 as an active ingredient, prepared in accordance with the above Example 1, was used.

[7] = surfactant ADECA COL PS-440E 0.05 vol %, present invention
[8] = surfactant NIKKOL DDP-8 0.05 vol %, present invention
[9] = surfactant NIKKOL TDP-8 0.05 vol %, present invention
[10] = surfactant PHOSPHANOL ML-240 0.05 vol %, present invention
[11] = surfactant PHOSPHANOL RS-710 0.05 vol %, present invention
[12] = surfactant PLYSURF A219B 0.05 vol %, present invention
[13] = surfactant SILWETT L-77 0.1 vol %, comparison
[14] = surfactant PHOSPHOLAN PS-236 0.05 vol %, present invention

With CCn1ncc(C(=O)c2ccc(S(C)(=O)=O)c(OCCOC)c2C)c1O [2-6] the “Growth inhibition rate (%) of crabgrass” value (crabgrass [1]; [7]) was 75%, the “Growth inhibition rate (%) of crabgrass” value (crabgrass [1]; [8]) was 70% and the “Growth inhibition rate (%) of crabgrass” value (crabgrass [1]; [9]) was 73%. The “Growth inhibition rate (%) of crabgrass” value (crabgrass [1]; [10]) was 85%, the “Growth inhibition rate (%) of crabgrass” value (crabgrass [1]; [11]) was 70% and the “Growth inhibition rate (%) of crabgrass” value (crabgrass [1]; [12]) was 78%. For the same compound, the “Growth inhibition rate (%) of crabgrass” value (crabgrass [1]; [13]) was 40%, the “Growth inhibition rate (%) of barnyardgrass” value [2, 14] was 95% and the “Growth inhibition rate (%) of barnyardgrass” value [2, 13] was 10%.

For COCc1c(S(C)(=O)=O)ccc(C(=O)c2cnn(C)c2O)c1C [2-185], the “Growth inhibition rate (%) of barnyardgrass” value [3, 14] was 80%, the “Growth inhibition rate (%) of barnyardgrass” value [3, 13] was 0% and the “Growth inhibition rate (%) of crabgrass” value (crabgrass [4]; [8]) was 70%. The “Growth inhibition rate (%) of crabgrass” value (crabgrass [4]; [9]) was 70%, the “Growth inhibition rate (%) of crabgrass” value (crabgrass [4]; [10]) was 70% and the “Growth inhibition rate (%) of crabgrass” value (crabgrass [4]; [11]) was 73%. The “Growth inhibition rate (%) of crabgrass” value (crabgrass [4]; [12]) was 70% and the “Growth inhibition rate (%) of crabgrass” value (crabgrass [4]; [13]) was 20%.

COCCOCc1nc(C(F)(F)F)ccc1C(=O)C1C(=O)C2CCC(C2)C1=O (stereo not drawn) [5-1] was tested, and the “Growth inhibition rate (%) of barnyardgrass” value (barnyardgrass; [7]) was 85% and the “Growth inhibition rate (%) of barnyardgrass” value (barnyardgrass; [13]) was 70%.

In the case of CS(=O)(=O)c1ccc(C(=O)C2C(=O)CCCC2=O)c(Cl)c1COCC(F)(F)F [Compound No. 3-31], the “Growth inhibition rate (%) of crabgrass” value (crabgrass [5]; comparison: 60 g a.i./ha wettable powder in 300 L/ha water with surfactant CITOWETT 0.3 vol %) is reported as 20% and the “Growth inhibition rate (%) of crabgrass” value (crabgrass [5]; the present invention: 60 g a.i./ha wettable powder in 300 L/ha water with surfactant NIKKOL DDP-8 0.05 vol %) is reported as 80%.

For CCn1ncc(C(=O)c2ccc(S(C)(=O)=O)c(OCCOC)c2C)c1OC(C)OC(=O)OC (stereo not drawn) [Compound No. 4-320, 1-(1-ethyl-4-(3-(2-methoxyethoxy)-2-methyl-4-(methylsulfonyl)benzoyl)-1H-pyrazol-5-yloxy)ethyl methyl carbonate], the “Growth inhibition rate (%) of crabgrass” value (crabgrass [6]; [8]) was 90%, the “Growth inhibition rate (%) of crabgrass” value (crabgrass [6]; [14]) was 90% and the “Growth inhibition rate (%) of crabgrass” value (crabgrass [6]; [13]) was 88%.
